Measurements: patent US20130310347A1, “MULTI-MODALITY MOLECULAR IMAGING HIGH-THROUGHPUT ASSAY FOR IDENTIFYING HEAT SHOCK PROTEIN 90 (HSP90) INHIBITORS” (The Board of Trustees of the Leland Stanford Junior …, priority 2012, published 2013)

Key:
Hsp90α/p23 interactions = molecular target: T1, Hsp90α/p23 interactions (Homo sapiens, UniProt P07900); assay: HTS dose response, 293T cells stably expressing Hsp90α/p23 split RL reporters; assay type: cell-based; details: inhibition of bioluminescence signals by 50% vs carrier control; 8 point dose response 0.156-20 μM; 24 h
T1 construct: expressed in transfected cells; also with FL-eGFP reporter (293Tα-FG) and as xenografts in nude mice
Procedure: Novel Hsp90 inhibitors using a commercial 30,176 small molecule chemical compound library with unknown targets and molecular mechanisms (FIG. 9B) were also identified. 293T cells stably expressing Hsp90α/p23 or Hsp90β/p23 split RL reporters were treated with each compound at 8.3 μM.
(§1) Baseline complemented RL activities were determined 90 mins after addition of 20 μl of ENDUREN® (10 μM final concentration) (Promega, Madison, Wis.) using the Analyst GT (Molecular Device, Sunnyvale, Calif.), with an acquisition time of 0.2 sec per well. Cells were incubated with compounds for 24 h prior to re-determination of complemented RL activities, and normalized to the mean RL activities of untreated cells in columns 1-2. Another small molecule chemical library with 30,176 compounds (SPECS, Wakefield, R.I.) was also used in screening modulators of Hsp90(α/β)/p23 inhibitors (at 8.3 μM, one drug per well for initial screening). For dose response/confirmation assay the compounds were tested in duplicate in an 8 point (0.156-20 μM) dose response assay for RL activities for both Hps90(α/β)/p23 interactions. The effect of each compound on cell proliferation at 20 μM was determined using Cell Titer-Blue assay in duplicate wells. […]

[1] = system: 293T cells stably expressing split RL reporters; assay: Cell Titer-Blue cell proliferation assay; assay type: cell-based; details: Homo sapiens, HEK-293T
Procedure: Inhibition of cell proliferation at 20 μM was determined by cell-titer blue assays and toxic compounds were eliminated. The IC50 values for inhibition of bioluminescence signals (BLI) in cells stably expressing Hsp90(α/β)/p23 split RL reporters and the inhibition of cell proliferation for the top 19 compounds are shown in Table 1, Example 15, and their structures are shown in FIGS. 1A-1D.
as §1

[2] = 18F-FDG uptake in the brains of mice; assay type: in vivo; details: CP9 treated mice; P>0.05 vs carrier
Procedure: The ^18F-FDG uptake in the brains of mice using CT images to delineate boundaries was also analyzed. Relative to day 0, the maximum % ID/g of ^18F-FDG uptake was 114±11% in mice treated with carrier and 99±4% in mice treated with CP9. There was no statistical difference between the two groups (P>0.05).

[3] = system: Hsp90 client proteins (Raf-1, total and phosphorylated Akt); assay: Western blotting of Hsp90 client proteins in 293T cells; assay type: cell-based, human; details: 5 μM, 24 h
Procedure: FIG. 5A is a digital image of a western blot analysis illustrating the effect of lead compounds on the expression of Hsp90 client proteins. 293T cells stably expressing Hsp90(α/β)/p23 split reporters were treated with carrier control or compounds CP1, CP9, or CP18 (5 μM each) for 24 h. The known Hsp90 inhibitor PU-H71 (2 μM) was used as a positive control. The expression of Hsp90 client proteins (Raf-1, total and phosphorylated Akt) was determined by western blotting. α-Tubulin was used as a loading control.
Cells treated with PU-H71 (2 μM) served as a positive control.
Cells treated with 2 μM of PU-H71 served as a positive control. Western blotting of Hsp70, phosphorylated and total Akt and co-immunoprecipitation of Hsp90(α/β)/p23 interactions was performed as described Inglese et al., (2006) Proc. Nat. Acad. Sci. U.S.A. 103: 11473-11478, incorporated herein by reference in its entirety. The expression of Raf-1 was determined using rabbit polyclonal antibodies against Raf-1 (0.5 μg/ml, Abcam).

[4] = system: 293T Hsp90(α/β)/p23-FG xenografts; assay: 18F-FDG small animal PET/CT of tumor glucose metabolism; assay type: in vivo, mice
Procedure: FIG. 8B is a graph illustrating quantitation of the effect of CP9 on inhibition of glucose metabolism. The PET image of each mouse and each site at each time point was reconstructed and quantified using the OSEM 2D algorithm. The increase in max % ID/g at 43 h relative to 0 hr is shown as average±S.E.M. CP9 led to significant decrease in glucose metabolism, compared to carrier control treated mice (p<0.005).
^18F-FDG PET/CT has been used for repetitive and non-invasive monitoring of chemotherapy responses both in small animals and in humans (Aliaga et al., (2007) Mol. Imaging. Biol. 9: 144-150; de Geus-Oei et al., (2009) J. Nucl. Med. 50(Suppl 1): 43S-54S). Since CP9 inhibits glucose metabolism in cancer cells (FIG. 6B), its effect in the same cohort of living mice used for BLI (FIGS. 7A-7C) was monitored by small animal PET/CT imaging using ^18F-FDG. […] Baseline ^18F-FDG uptake in tumor-bearing mice was determined pre-treatment with four doses of carrier control (DMSO) or CP9 (80 mg/kg in DMSO) (FIG. 8A). The % max ID/g of ^18F-FDG uptake was determined by the OSEM2D method upon normalization of injected dose (Wiant et al., (2010) Med. Phys. 37: 1169-1182). The % increase in ^18F-FDG uptake at 43 h relative to 0 h was determined for each tumor site. […]

- IC50 (Hsp90α/p23 interactions): 3.2 µM
- maximum % ID/g of 18F-FDG uptake in brain relative to day 0 [2]: 99±4%
SMILES: Cc1cc(NC(=O)CSc2nc(-c3cccs3)cc(C(F)(F)F)n2)no1 [CP9, N-(5-methylisoxazol-3-yl)-2-(4-(thiophen-2-yl)-6-(trifluoromethyl)pyrimidin-2-ylthio)acetamide]
- inhibition at 20 µM [1]: 29%
- levels of Hsp90 client proteins (pAkt/total Akt, Raf-1) [3]: more effective than CP18
- decrease in 18F-FDG uptake in tumors relative to carrier control treated mice ([4]; CP9 treatment, 43 h): 40%
- decrease in 18F-FDG uptake in tumors at 43 h relative to 0 h ([4]; four doses CP9 80 mg/kg in DMSO, n=10 tumors, p<0.005 vs carrier control): 16±9%
